Assay results: ChEMBL document CHEMBL4346671, “Synthesis and bioevaluation of diarylpyrazoles as antiproliferative agents” (Eur J Med Chem, 2019)
Active and inactive are the calls of the source. The rule behind the calls is not given here.

What was measured:
SGC-7901 [1] = assay: Antiproliferative activity against human SGC7901 cells measured after 72 hrs by MTT assay; assay type: functional, cell-based; conditions: SGC-7901, 72 h
HT-1080 = assay: Antiproliferative activity against human HT1080 cells measured after 72 hrs by MTT assay; assay type: functional, cell-based; conditions: HT-1080, 72 h
KB = assay: Antiproliferative activity against human KB cells measured after 72 hrs by MTT assay; assay type: functional, cell-based
Tubulin (Sus scrofa) [2] = molecular target: T1, Tubulin (Sus scrofa) (UniProt P02554+P02550); conditions: 4 uM
Description: Inhibition of porcine brain tubulin polymerization at 4 uM preincubated before GTP addition and measured at 1 min intervals for 90 mins by fluorescence based assay

Tubulin (Homo sapiens) [3] = molecular target: T2, Tubulin (Homo sapiens) (UniProt P68371+Q9H4B7+P0DPH7+P68366+Q13509+Q71U36+P04350+Q3ZCM7+P07437+P68363+Q9BQE3+Q6PEY2+Q13885+Q9BVA1+Q9BUF5); assay: Induction of microtubule depolymerization in human SGC7901 cells assessed as change in microtubule morphology at 2 fold antiproliferative IC50 measured after 24 hrs by DAPI staining based fluorescence microscopy; assay type: cell-based
SGC-7901 [4] = assay: Cell cycle arrest in human SGC7901 cells assessed as increase in cell population at G2/M phase at 2 fold IC50 concentration measured after 24 hrs by propidium iodide staining based FACScan flow cytometry; assay type: functional
SGC-7901 [5] = assay: Cell cycle arrest in human SGC7901 cells assessed as increase in cell population at G2/M phase at 2 fold IC50 concentration measured after 12 hrs by propidium iodide staining based FACScan flow cytometry; assay type: functional
SGC-7901 [6] = assay: Induction of polyploidy in human SGC7901 cells at 2 fold IC50 concentration measured after 72 hrs by propidium iodide staining based FACScan flow cytometry; assay type: functional, cell-based
SGC-7901 [7] = assay: Cell cycle arrest in human SGC7901 cells assessed as accumulation of cell population in G2/M phase at 2 fold IC50 concentration for 12 to 72 hrs by propidium iodide staining based FACScan flow cytometry; assay type: functional; conditions: TDE = time-dependent effect
Tubulin = Tubulin (Sus scrofa, UniProt P02554+P02550); assay: Inhibition of porcine brain tubulin polymerization preincubated before GTP addition and measured at 1 min intervals for 90 mins by fluorescence based assay
SGC-7901 [8] = assay: Cell cycle arrest in human SGC7901 cells assessed as decrease in cell population at G2/M phase at 2 fold IC50 concentration measured after 48 hrs by propidium iodide staining based FACScan flow cytometry; assay type: functional
SGC-7901 [9] = assay: Cell cycle arrest in human SGC7901 cells assessed as increase in cell population at sub-G1 phase at 2 fold IC50 concentration measured after 48 hrs by propidium iodide staining based FACScan flow cytometry; assay type: functional
SGC-7901 [10] = assay: Cell cycle arrest in human SGC7901 cells assessed as increase in cell population at sub-G1 phase at 2 fold IC50 concentration measured after 36 hrs by propidium iodide staining based FACScan flow cytometry; assay type: functional
Tubulin (Homo sapiens) [11] = molecular target: T2, Tubulin (Homo sapiens); assay: Inhibition of microtubule formation in human SGC7901 cells assessed as mitotic catastrophe at 2 fold IC50 concentration measured after 24 hrs by DAPI staining based fluorescence microscopy; assay type: cell-based
Tubulin (Homo sapiens) [12] = molecular target: T2, Tubulin (Homo sapiens); assay: Inhibition of microtubule formation in human SGC7901 cells at 2 fold IC50 concentration measured after 24 hrs by DAPI staining based fluorescence microscopy; assay type: cell-based
SGC-7901 [13] = assay: Cell cycle arrest in human SGC7901 cells assessed as decrease in cell population at G2/M phase at 2 fold IC50 concentration measured after 36 hrs by propidium iodide staining based FACScan flow cytometry; assay type: functional
SGC-7901 [14] = assay: Cell cycle arrest in human SGC7901 cells assessed as decrease in cell population at G2/M phase at 2 fold IC50 concentration measured after 72 hrs by propidium iodide staining based FACScan flow cytometry; assay type: functional
SGC-7901 [15] = assay: Cell cycle arrest in human SGC7901 cells assessed as increase in cell population at sub-G1 phase at 2 fold IC50 concentration measured after 72 hrs by propidium iodide staining based FACScan flow cytometry; assay type: functional
Tubulin (Sus scrofa) [16] = molecular target: T1, Tubulin (Sus scrofa); assay: Inhibition of porcine brain tubulin polymerization at 3 to 20 uM preincubated before GTP addition and measured at 1 min intervals for 90 mins by fluorescence based assay

T1 sequence (P02550 whole entry, looked up): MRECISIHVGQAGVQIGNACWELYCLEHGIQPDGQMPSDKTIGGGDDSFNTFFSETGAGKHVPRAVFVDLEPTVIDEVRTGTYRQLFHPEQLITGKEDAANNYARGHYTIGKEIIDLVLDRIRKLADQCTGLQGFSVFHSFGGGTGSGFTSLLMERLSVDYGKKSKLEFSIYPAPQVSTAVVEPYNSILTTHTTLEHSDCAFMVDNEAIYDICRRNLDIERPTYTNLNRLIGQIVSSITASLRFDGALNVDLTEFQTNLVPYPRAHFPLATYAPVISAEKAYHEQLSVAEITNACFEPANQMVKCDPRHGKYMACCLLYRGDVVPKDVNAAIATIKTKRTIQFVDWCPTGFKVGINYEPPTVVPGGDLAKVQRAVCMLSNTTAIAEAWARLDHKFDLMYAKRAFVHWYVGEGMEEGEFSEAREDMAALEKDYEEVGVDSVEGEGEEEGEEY
T1 sequence (P02554 whole entry, looked up): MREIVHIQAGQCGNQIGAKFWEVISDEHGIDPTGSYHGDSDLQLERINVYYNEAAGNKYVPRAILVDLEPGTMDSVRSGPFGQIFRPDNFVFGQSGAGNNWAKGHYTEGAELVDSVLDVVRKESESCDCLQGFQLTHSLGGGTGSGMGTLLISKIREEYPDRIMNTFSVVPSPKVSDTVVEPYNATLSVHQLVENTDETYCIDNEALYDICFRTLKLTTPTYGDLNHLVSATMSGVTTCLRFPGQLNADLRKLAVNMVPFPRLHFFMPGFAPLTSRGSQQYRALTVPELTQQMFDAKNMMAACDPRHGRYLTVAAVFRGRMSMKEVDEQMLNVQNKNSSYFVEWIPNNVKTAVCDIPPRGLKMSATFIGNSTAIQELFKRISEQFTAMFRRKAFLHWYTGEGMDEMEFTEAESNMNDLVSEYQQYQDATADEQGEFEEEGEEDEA

Compound	IC50 (SGC-7901 [1]) [nM]	IC50 (HT-1080) [nM]	IC50 (KB) [nM]	also measured
COc1cc(-c2n[nH]cc2-c2ccc(F)c(F)c2)cc(OC)c1OC	14000	19300	32800	–
COc1cc(-c2c(-c3ccc(OC(F)(F)F)cc3)cnn2C(C)=O)cc(OC)c1OC	13700	19500	10800	–
COc1cc(-c2n[nH]cc2-c2ccc(OCc3ccccc3)cc2)cc(OC)c1OC	13000	8130	6720	–
COc1cc(-c2n[nH]cc2-c2ccc(OC(F)(F)F)cc2)cc(OC)c1OC	1340	1340	2870	–
COc1ccc(-c2n[nH]cc2-c2cc(OC)c(OC)c(OC)c2)cc1OC	3810	1920	620	–
COc1ccc(-c2[nH]ncc2-c2cc(OC)c(OC)c(OC)c2)cc1O	32	23	60	–
COc1cc(-c2n[nH]cc2-c2ccc(O)cc2)cc(OC)c1OC	15400	10000	8470	–
CCOc1ccc(-c2cnn(C(C)=O)c2-c2cc(OC)c(OC)c(OC)c2)cc1	15	19	36	–
COc1ccc(-c2c(-c3cc(OC)c(OC)c(OC)c3)cnn2C(C)=O)cc1OCc1ccccc1	30100	18400	84200	–
COc1ccc(-c2c(-c3cc(OC)c(OC)c(OC)c3)cnn2C(C)=O)cc1OC	2030	1210	700	–
COc1ccc(-c2cnn(C(C)=O)c2-c2cc(OC)c(OC)c(OC)c2)cc1OCc1ccccc1	10400	12200	6720	–
COc1ccc(/C=C\c2cc(OC)c(OC)c(OC)c2)cc1O [COMBRETASTATIN A4]	130	51	250	inhibition (Tubulin (Sus scrofa) [2]): Active; Activity (Tubulin (Homo sapiens) [3]): Active; Activity (SGC-7901 [4]): Active; Activity (SGC-7901 [5]): Active
COc1ccc(-c2cnn(C(C)=O)c2-c2cc(OC)c(OC)c(OC)c2)cc1O	15	17	33	–
COc1ccc(-c2n[nH]cc2-c2cc(OC)c(OC)c(OC)c2)cc1OCc1ccccc1	28200	20800	86200	–
CCOc1ccc(-c2c(-c3cc(OC)c(OC)c(OC)c3)cnn2C(C)=O)cc1	200	21	110	–
COc1ccc(-c2c[nH]nc2-c2cc(OC)c(OC)c(OC)c2)cc1OC	36500	4840	5440	–
COc1ccc(-c2c(-c3cc(OC)c(OC)c(OC)c3)cnn2C(C)=O)cc1O	9.3	12	22	Activity (SGC-7901 [6]): Active; Activity (SGC-7901 [7]): Tde; IC50 (Tubulin): 7730 nM; Activity (SGC-7901 [8]): Active; Activity (SGC-7901 [9]): Active; Activity (SGC-7901 [10]): Active; Activity (Tubulin (Homo sapiens) [3]): Active; inhibition (Tubulin (Homo sapiens) [11]): Active; inhibition (Tubulin (Homo sapiens) [12]): Active; Activity (SGC-7901 [13]): Active; Activity (SGC-7901 [4]): Active; Activity (SGC-7901 [5]): Active; Activity (SGC-7901 [14]): Active; Activity (SGC-7901 [15]): Active; inhibition (Tubulin (Sus scrofa) [16]): Dose-dependent effect
COc1cc(-c2c(-c3ccc(O)cc3)cnn2C(C)=O)cc(OC)c1OC	4870	2520	5080	–
COc1ccc(-c2c[nH]nc2-c2cc(OC)c(OC)c(OC)c2)cc1	180	80	72	–
COc1ccc(-c2cn[nH]c2-c2cc(OC)c(OC)c(OC)c2)cc1O	31	30	23	–
COc1ccc(-c2cnn(C(C)=O)c2-c2cc(OC)c(OC)c(OC)c2)cc1	13	96	28	–
COc1cc(-c2c(-c3ccc(OCc4ccccc4)cc3)cnn2C(C)=O)cc(OC)c1OC	14400	44900	129000	–
COc1cccc(-c2c[nH]nc2-c2cc(OC)c(OC)c(OC)c2)c1	2200	4070	1500	–
COc1ccc(-c2n[nH]cc2-c2cc(OC)c(OC)c(OC)c2)cc1	44	26	25	–
CCOc1ccc(-c2c[nH]nc2-c2cc(OC)c(OC)c(OC)c2)cc1	30	17	35	–
COc1ccc(-c2cnn(C(C)=O)c2-c2cc(OC)c(OC)c(OC)c2)cc1OC	4820	1330	4580	–
CCOc1ccc(-c2n[nH]cc2-c2cc(OC)c(OC)c(OC)c2)cc1	15	21	65	–
COc1ccc(-c2c[nH]nc2-c2cc(OC)c(OC)c(OC)c2)cc1OCc1ccccc1	9260	10000	7100	–
COc1ccc(-c2c(-c3cc(OC)c(OC)c(OC)c3)cnn2C(C)=O)cc1	31	14	23	–
